# Measurements published in article PMC5876303, “Discovery of C-3 Tethered 2-oxo-benzo[1,4]oxazines as Potent Antioxidants: Bio-Inspired Based Design, Synthesis, Biological Evaluation, Cytotoxic, and in Silico Molecular Docking Studies” (Frontiers in Chemistry, 2018).
# Where two headings read alike, the source gives them in different places.
# Experiments:
# [1] = Figure 1, cited from earlier work
# [2] = DPPH radical scavenging antioxidant assay; type: biochemical; conditions: Table 1; mean ± SD, n = 3; 517 nm after 20 min
# Procedure: In DPPH radical scavenging method the plant extract (0.75 mL) at different concentrations ranging from 10 to 100 μg mL^−1 was mixed with 1.5 mL of a DPPH methanolic solution (20 mg L^−1). Pure methanol was taken as control and ascorbic acid (vitamin C), vitamins A and E were used as a reference compounds. The absorbance was measured at 517 nm after 20 min of reaction. The % of DPPH decolouration of the sample was calculated according to the formula (Sharma and Bhat, [2009]).
# Decolouration % = [1−(Abs SAMPLE/Abs CONTROL)]×100
# The decolouration was plotted against the sample extract concentration and a logarithmic regression curve was established in order to calculate the IC50. The results are expressed as antiradical efficiency (AE), which is 1000-fold inverse of the IC50 value AE=1000/ IC50.
# [3] = test system: 3T3 fibroblast cell lines; test: in vitro; type: cell-based; conditions: mouse, 72 h, 250 μg/ml
# Procedure: (§1) Cell toxicity of active C-3 tethered 2-oxo-benzo[1,4]oxazine analogs were accessed using 3T3 fibroblast cell lines in MTT assay via the reported protocol of Danihelová et al. ([2013]) [For details, see supporting information].
# (§2) The cytotoxic effect of the active compounds prepared on cells was detected in vitro using the mitochondrial cytotoxic test according to Danihelová et al. (2013) with modifications. Cell viability was evaluated using thiazolyl blue tetrazolium bromide (MTT), which indicates the metabolic activity of cells. The experiment was performed in 96-well microplates. The cells were seeded at a density of 3.5×10^3 3T3 fibroblast cells per well. Samples were dissolved in DMSO (stock solution 10 […]
# (§3) (concentration of DMSO 0.5%) and after 24 h they were added to the cells. Microplates were cultivated for 72 h in thermostat at 37 °C and 5% CO 2 atmosphere. After incubation thiazolyl blue tetrazolium bromide (3.33 mg/ml phosphate buffered saline, pH=7.4) was pipetted to each well and left to incubate for further two hours. Then the medium with MTT solution was removed. Formazan crystals in viable cells were dissolved in the lysis solution (4 mM HCl and 0.1% Nonidet P40 in ethanol). Microplates were shaken 15 min at 1500 rpm. Absorbance was measured at 540 nm and reference wavelength at 740 nm. Each value is the mean of 6 wells with standard deviation.
# (§4) Inhibition activity was expressed as percentages of control with DMSO.
# in vitro = type: cell-based; conditions: mouse, Cell viability (%)
# Procedure: as §1, §2, §3, §4
# [4] = Ferric reducing antioxidant power (FRAP) assay; type: biochemical; conditions: for FRAP assay (C0.5FRAP): mean ± SD, n = 3, concentration equivalent to FeSO4 at 0.5 mmol/L, 37°C, 30 min, 593 nm
# Procedure: The FRAP reagent was prepared by the addition of freshly prepared 20.0 mM FeCl3.6H2O solution, 10.0 mM of […] (TPTZ) solution and 300 mM sodium acetate buffer (pH 3.6) in a ratio of 1:1:10 (v/v/v). After that, Sample (our synthesized 2-oxo-2-phenylethylidenes-linked 2-oxo-benzo[1,4]oxazines 20a-ab) was added to 3 ml of freshly prepared FRAP reagent and this reaction mixture was incubated at 37°C temperature for 30 min. and the absorbance was measured at 593 nm. It is also noted that, a freshly prepared solution of FeSO4 was used for calibration of standard curve. The FRAP antioxidant capability were evaluated in terms of C0.5FRAP (the antioxidant capability of samples related to their concentration, which is equivalent to that of FeSO4 at 0.5 mmol/L) (Benzie and Strain, [1996]).
# The FRAP assay was deliberated using the method as illustrated by Benzie and Strain (Benzie and Strain, [1996]). […] The reducing nature of an antioxidant depends on their property to donate a hydrogen atom for the breaking of the free radical chain, which is responsible for oxidative stress etc.
# [5] = ref Niemeyer, 2009, Adhikari et al., 2013, Glenska et al., 2015
DPPH assay IC50 [2] [µg/mL],melting point [°C],Structure (SMILES),"% DPPH-scavenging activity [1, 5] [%]","IC50 (antioxidant activity) [1, 5] [µg/mL]",Cell viability (%) [3] [%],"viability at 72 h, 25 μg/ml (in vitro) [%]","viability at 72 h, 50 μg/ml (in vitro) [%]","viability at 72 h, 100 μg/ml (in vitro) [%]","viability at 72 h, 250 μg/ml (in vitro) [%]",FRAP assay (C0.5FRAP) [4] [µM],"FRAP potency compared with standard reference BHT ([4]; in words, BHT C0.5FRAP = 546.0 ± 13.6 μM)","IC50 (antioxidant activity) ([1]; ref Harput et al., 2011) [µg/mL]","% DPPH-scavenging activity ([1]; ref Sáncheza et al., 2014) [%]"
10.18 ± 0.1,235 to 237,"O=C1Oc2cc([N+](=O)[O-])ccc2N/C1=C\C(=O)c1ccc(F)cc1 [Compound 20x, (Z)-3-(2-(4-fluorophenyl)-2-oxoethylidene)-7-nitro-3,4-dihydro-2H-benzo[b][1,4]oxazin-2-one]",–,–,73.91,95.5,86.7,81.1,> 65,628.6 ± 32.4,–,–,–
4.74 ± 0.08,198 to 200,"O=C1Oc2ccc([N+](=O)[O-])cc2N/C1=C\C(=O)c1ccccc1 [Compound 20t, (Z)-6-nitro-3-(2-oxo-2-phenylethylidene)-3,4-dihydro-2H-benzo[b][1,4]oxazin-2-one]",–,–,67.46,89.7,80.5,74.9,> 65,638.2 ± 32.6,less active than BHT,–,–
43.6 ± 0.92,142 to 145,"Cc1ccc2c(c1)N/C(=C\C(=O)c1ccc(Cl)cc1Cl)C(=O)O2 [Compound 20k, (Z)-3-[2-(2,4-dichloro-phenyl)-2-oxo-ethylidene]-6-methyl-3,4-dihydro-benzo[1,4]oxazin-2-one]",–,–,–,–,–,–,–,652.5 ± 30.6,–,–,–

# Second part, the compound before the results:
Structure (SMILES),DPPH assay IC50 [2] [µg/mL],melting point [°C],"% DPPH-scavenging activity [1, 5] [%]","IC50 (antioxidant activity) [1, 5] [µg/mL]",Cell viability (%) [3] [%],"viability at 72 h, 25 μg/ml (in vitro) [%]","viability at 72 h, 50 μg/ml (in vitro) [%]","viability at 72 h, 100 μg/ml (in vitro) [%]","viability at 72 h, 250 μg/ml (in vitro) [%]",FRAP assay (C0.5FRAP) [4] [µM],"FRAP potency compared with standard reference BHT ([4]; in words, BHT C0.5FRAP = 546.0 ± 13.6 μM)","IC50 (antioxidant activity) ([1]; ref Harput et al., 2011) [µg/mL]","% DPPH-scavenging activity ([1]; ref Sáncheza et al., 2014) [%]"
"COc1ccc2c(c1)OC(O)C(=O)N2O (centres unmarked) [Compound 1, DIMBOA]",–,–,98.57,11.31,–,–,–,–,–,–,–,–,–
"COc1ccc(C(=O)/C=C2\Nc3ccccc3OC2=O)cc1 [Compound 20b, (Z)-3-[2-(4-methoxy-phenyl)-2-oxo-ethylidene]-3,4-dihydro-benzo [1, 4] oxazin-2-one]",6.89 ± 0.07,200 to 203,–,–,75.58,92.1,88.4,80.7,> 65,686.4 ± 30.8,–,–,–
"O=C1Nc2ccccc2OC1O (centres unmarked) [Compound 5, 2-Hydroxy-1,4-benzoxazin-3(4H)-one]",–,–,–,–,–,–,–,–,–,–,–,39.29,–
"O=c1[nH]c2ccccc2c(=O)o1 [Compound 4, 2H-benzo[d][1,3]oxazine-2,4(1H)-dione]",–,–,–,–,–,–,–,–,–,–,–,–,17.2 ± 4.15
